Data as given in patent US20020071872A1, “Laxative composition” (priority 1999, published 2002).

What was measured:
small bowel transit = assay: Small bowel (small intestinal) transit of a charcoal marker in rats; format: in vivo, rat
Procedure: A study was performed to characterize and compare the effects of bisacodyl, simethicone and combinations of bisacodyl and simethicone on small bowel transit time. Small intestinal transit time was studied as a surrogate for […] in the rat. Leng-Peschlow, E., “Effect of Sennosides A+B and Bisacodyl on rat large intestine”, Pharmacology, vol. 38 (1989), 310-318 (1989). […] The prokinetic efficacy of bisacodyl in the small intestine may differ from that observed in the large intestine by Leng-Psechlow. For the small intestinal transit model a sub-therapeutic dose of 25mg/kg bisacodyl was chosen. Rats were dosed with a suspension of powdered charcoal, which served as a non-absorbable marker. The rats were also dosed with bisacodyl USP 23 (ZetaPharm, Inc.) and simethicone supplied as […]® drops and activated charcoal (Sigma Chemical). Six treatments were compared a control; simethicone 15 mg/kg; bisacodyl 25 mg/kg; and bisacodyl 25 mg/kg and simethicone at 5, 10 or 15 mg/kilogram. Dosing preparations of charcoal suspension (10 weight percent) were made freshly each day by adding dry powder to 0.5 percent methylcellulose in water and stirring. Dosing preparations were made each day by adding the appropriate quantity of bisacodyl and/or simethicone drops to the charcoal suspension. All treatments were administered orally, using the dose volume of 10 milliliters per kilogram. Sixty minutes after dosing, the rats were sacrificed and small bowel transit rate was determined by identifying the charcoal marker and measuring its distance from the pylorus.

fecal output = conditions: 10-100 mg/kg bisacodyl given orally, rat; cited from earlier work
large intestinal transit = conditions: 50 mg/kg bisacodyl given orally, rat; cited from earlier work

In the case of `CC(=O)Oc1ccc(C(c2ccc(OC(C)=O)cc2)c2ccccn2)cc1` [Bisacodyl, bisacodyl], the Mean % traveled (small bowel transit; bisacodyl 25 mg/kg oral, rat, charcoal marker, 60 min after dosing) is reported as 80.7%, the “% Increase” value (small bowel transit; compared to vehicle control, bisacodyl 25 mg/kg oral, rat) is reported as 1% and the “small bowel transit compared with control” value (small bowel transit; rats treated with simethicone alone or bisacodyl alone) is reported as “not different from control”. For the same compound, the fecal output (fecal output) was “increased fecal output” and the large intestinal transit (large intestinal transit) was “significantly stimulated”.
